In patent publication US12473304B2, “Heterocyclic PAD4 inhibitors” (BRISTOL-MYERS SQUIBB COMPANY, priority 2020, dated 2025):

molecular target: human PAD4 (hPAD4) (Homo sapiens (Human), UniProt Q9UM07); experiment: RFMS Human PAD4 Functional Assay 1; assay type: biochemical; details: RFMS assay 1; 5 nM hPAD4, 250 μM BAEE substrate, 50 μM calcium, 37° C.
Summary of the method: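 Recombinant hPAD4 (5 nM) was preincubated with compound (top 50 μM, 0.5% DMSO) for 30 min at 37 °C, then reacted with 250 μM BAEE for 90 min at 37 °C in pH 7.5 HEPES buffer with 50 μM calcium and 5 μM TPEN. Product was derivatized with phenyl glyoxal and quantified by RapidFire MS.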

human PAD4 (hPAD4), sequence (Q9UM07 whole entry): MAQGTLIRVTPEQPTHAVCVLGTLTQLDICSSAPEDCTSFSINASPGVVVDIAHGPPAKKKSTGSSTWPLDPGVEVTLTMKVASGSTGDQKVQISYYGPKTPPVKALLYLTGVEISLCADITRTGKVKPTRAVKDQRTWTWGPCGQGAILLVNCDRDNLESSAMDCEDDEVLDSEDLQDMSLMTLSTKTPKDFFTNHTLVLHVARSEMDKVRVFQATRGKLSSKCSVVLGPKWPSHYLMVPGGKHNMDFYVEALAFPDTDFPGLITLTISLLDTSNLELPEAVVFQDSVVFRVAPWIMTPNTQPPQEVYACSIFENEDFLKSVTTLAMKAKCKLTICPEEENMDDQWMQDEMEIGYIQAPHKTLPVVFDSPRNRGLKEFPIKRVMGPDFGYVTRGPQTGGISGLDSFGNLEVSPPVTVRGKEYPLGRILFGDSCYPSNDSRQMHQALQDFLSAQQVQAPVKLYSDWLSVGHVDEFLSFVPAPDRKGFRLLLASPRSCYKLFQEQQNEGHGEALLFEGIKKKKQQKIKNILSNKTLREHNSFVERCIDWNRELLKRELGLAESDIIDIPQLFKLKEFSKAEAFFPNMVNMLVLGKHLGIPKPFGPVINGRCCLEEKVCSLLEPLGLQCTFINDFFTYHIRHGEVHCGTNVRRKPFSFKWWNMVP

SMILES | IC50 [µM]
Cc1c(-c2cc3ccc(-c4cccc(O)c4F)cc3n2CC2CC2)oc2cc(C(=O)N3C[C@H](N)C[C@@H](F)C3)ccc12 [Example 198, ((3R,5R)-3-Amino-5-fluoropiperidin-1-yl)(2-(1-(cyclopropylmethyl)-6-(2-fluoro-3-hydroxyphenyl)-1H-indol-2-yl)-3-methylbenzofuran-6-yl)methanone] | 3.26
Cc1c(-c2cc3ccc(-c4ccc(C(N)=O)c(Cl)c4)cc3n2CC2CC2)oc2cc(C(=O)N3C[C@H](N)C[C@@H](F)C3)ccc12 [Example 199, 4-(2-(6-((3R,5R)-3-Amino-5-fluoropiperidine-1-carbonyl)-3-methylbenzofuran-2-yl)-1-(cyclopropylmethyl)-1H-indol-6-yl)-2-chlorobenzamide] | 3.36
Cc1c(-c2cc3ccc(N4CCNCC4)cc3n2CC2CC2)oc2cc(C(=O)N3C[C@H](N)C[C@@H](F)C3)ccc12 [Example 201, ((3R,5R)-3-Amino-5-fluoropiperidin-1-yl)(2-(1-(cyclopropylmethyl)-6-(piperazin-1-yl)-1H-indol-2-yl)-3-methylbenzofuran-6-yl)methanone] | 1.97
Cc1c(-c2cc3ccc(N4CCC(N)CC4)cc3n2CC2CC2)oc2cc(C(=O)N3C[C@H](N)C[C@@H](F)C3)ccc12 [Example 202, ((3R,5R)-3-Amino-5-fluoropiperidin-1-yl)(2-(6-(4-aminopiperidin-1-yl)-1-(cyclopropylmethyl)-1H-indol-2-yl)-3-methylbenzofuran-6-yl)methanone] | 1.06
COc1cc(C(=O)N2C[C@H](N)C[C@@H](F)C2)cn2nc(-c3cc4ccc(-c5ccccc5CO)cc4n3CC3CC3)c(C)c12 [Example 209, [2-(2-{6-[(3R,5R)-3-Amino-5-fluoropiperidine-1-carbonyl]-4-methoxy-3-methylpyrazolo[1,5-a]pyridin-2-yl}-1-(cyclopropylmethyl)-1H-indol-6-yl)phenyl]methanol] | 1.08
COc1cc(C(=O)N2C[C@H](N)C[C@@H](F)C2)cn2nc(-c3cc4ccc(-c5cccc(CNS(C)(=O)=O)c5)cc4n3CC3CC3)c(C)c12 [Example 211, N-{[3-(2-{6-[(3R,5R)-3-Amino-5-fluoropiperidine-1-carbonyl]-4-methoxy-3-methylpyrazolo[1,5-a]pyridin-2-yl}-1-(cyclopropylmethyl)-1H-indol-6-yl)phenyl]methyl}methanesulfonamide] | 1.05
COc1cccc(-c2ccc3cc(-c4nn5cc(C(=O)N6C[C@H](N)C[C@@H](F)C6)cc(OC)c5c4C)n(CC4CC4)c3c2)c1 [Example 212, (3R,5R)-1-{2-[1-(Cyclopropylmethyl)-6-(3-methoxyphenyl)-1H-indol-2-yl]-4-methoxy-3-methylpyrazolo[1,5-a]pyridine-6-carbonyl}-5-fluoropiperidin-3-amine] | 1.69
COc1cc(C(=O)N2C[C@H](N)C[C@@H](F)C2)cn2nc(-c3cc4ccc(-c5cccc(NS(C)(=O)=O)c5)cc4n3CC3CC3)c(C)c12 [Example 213, N-[3-(2-{6-[(3R,5R)-3-Amino-5-fluoropiperidine-1-carbonyl]-4-methoxy-3-methylpyrazolo[1,5-a]pyridin-2-yl}-1-(cyclopropylmethyl)-1H-indol-6-yl)phenyl]methanesulfonamide] | 0.68
COc1cc(C(=O)N2C[C@H](N)C[C@@H](F)C2)cn2nc(-c3cc4ccc(-c5cccc(-c6nn[nH]n6)c5)cc4n3CC3CC3)c(C)c12 [Example 220, (3R,5R)-1-{2-[1-(Cyclopropylmethyl)-6-[3-(2H-1,2,3,4-tetrazol-5-yl)phenyl]-1H-indol-2-yl]-4-methoxy-3-methylpyrazolo[1,5-a]pyridine-6-carbonyl}-5-fluoropiperidin-3-amine] | 4.34
COc1cc(C(=O)N2C[C@H](N)C[C@@H](F)C2)cn2nc(-c3cc4ccc(-c5cccc6[nH]ncc56)cc4n3CC3CC3)c(C)c12 [Example 222, (3R,5R)-1-{2-[1-(Cyclopropylmethyl)-6-(1H-indazol-4-yl)-1H-indol-2-yl]-4-methoxy-3-methylpyrazolo[1,5-a]pyridine-6-carbonyl}-5-fluoropiperidin-3-amine] | 1.01

These reach a lower IC50. Values come first.

IC50 [µM] | SMILES
0.61 | COc1cc(C(=O)N2C[C@H](N)C[C@@H](F)C2)cn2nc(-c3cc4ccc(-c5cccc(CNC(C)=O)c5)cc4n3CC3CC3)c(C)c12 [Example 215, N-{[3-(2-{6-[(3R,5R)-3-Amino-5-fluoropiperidine-1-carbonyl]-4-methoxy-3-methylpyrazolo[1,5-a]pyridin-2-yl}-1-(cyclopropylmethyl)-1H-indol-6-yl)phenyl]methyl}acetamide]
0.55 | COc1cc(C(=O)N2C[C@H](N)C[C@@H](F)C2)cn2nc(-c3cc4ccc(-c5ccc6[nH]ncc6c5)cc4n3CC3CC3)c(C)c12 [Example 218, (3R,5R)-1-{2-[1-(Cyclopropylmethyl)-6-(1H-indazol-5-yl)-1H-indol-2-yl]-4-methoxy-3-methylpyrazolo[1,5-a]pyridine-6-carbonyl}-5-fluoropiperidin-3-amine]
0.51 | COc1cc(C(=O)N2C[C@H](N)C[C@@H](F)C2)cn2nc(-c3cc4ccc(-c5ccc(CNC(C)=O)cc5)cc4n3CC3CC3)c(C)c12 [Example 221, N-{[4-(2-{6-[(3R,5R)-3-Amino-5-fluoropiperidine-1-carbonyl]-4-methoxy-3-methylpyrazolo[1,5-a]pyridin-2-yl}-1-(cyclopropylmethyl)-1H-indol-6-yl)phenyl]methyl}acetamide]
0.49 | COc1cc(C(=O)N2C[C@H](N)C[C@@H](F)C2)cn2nc(-c3cc4ccc(-c5cccc(CO)c5)cc4n3CC3CC3)c(C)c12 [Example 210, [3-(2-{6-[(3R,5R)-3-Amino-5-fluoropiperidine-1-carbonyl]-4-methoxy-3-methylpyrazolo[1,5-a]pyridin-2-yl}-1-(cyclopropylmethyl)-1H-indol-6-yl)phenyl]methanol]
0.46 | COc1cc(C(=O)N2C[C@H](N)C[C@@H](F)C2)cn2nc(-c3cc4ccc(-c5ccc6c(cnn6C)c5)cc4n3CC3CC3)c(C)c12 [Example 219, (3R,5R)-1-{2-[1-(Cyclopropylmethyl)-6-(1-methyl-1H-indazol-5-yl)-1H-indol-2-yl]-4-methoxy-3-methylpyrazolo[1,5-a]pyridine-6-carbonyl}-5-fluoropiperidin-3-amine]
0.384 | Cc1c(-c2cc3ccc(-c4ccc(C(N)=O)c(F)c4)cc3n2CC2CC2)oc2cc(C(=O)N3C[C@H](N)C[C@@H](F)C3)ccc12 [Example 196, 4-(2-(6-((3R,5R)-3-Amino-5-fluoropiperidine-1-carbonyl)-3-methylbenzofuran-2-yl)-1-(cyclopropylmethyl)-1H-indol-6-yl)-2-fluorobenzamide]
0.317 | Cc1c(-c2cc3ccc(-c4ccn5c(C)nnc5c4)cc3n2CC2CC2)oc2cc(C(=O)N3C[C@H](N)C[C@@H](F)C3)ccc12 [Example 197, ((3R,5R)-3-Amino-5-fluoropiperidin-1-yl)(2-(1-(cyclopropylmethyl)-6-(3-methyl-[1,2,4]triazolo[4,3-a]pyridin-7-yl)-1H-indol-2-yl)-3-methylbenzofuran-6-yl)methanone]
0.27 | COc1cc(C(=O)N2C[C@H](N)C[C@@H](F)C2)cn2nc(-c3cc4ccc(-c5ccc(NS(C)(=O)=O)cc5)cc4n3CC3CC3)c(C)c12 [Example 216, N-[4-(2-{6-[(3R,5R)-3-Amino-5-fluoropiperidine-1-carbonyl]-4-methoxy-3-methylpyrazolo[1,5-a]pyridin-2-yl}-1-(cyclopropylmethyl)-1H-indol-6-yl)phenyl]methanesulfonamide]
0.26 | COc1cc(C(=O)N2C[C@H](N)C[C@@H](F)C2)cn2nc(-c3cc4ccc(-c5ccc(C(=O)N(C)C)cc5)cc4n3CC3CC3)c(C)c12 [Example 217, 4-(2-{6-[(3R,5R)-3-Amino-5-fluoropiperidine-1-carbonyl]-4-methoxy-3-methylpyrazolo[1,5-a]pyridin-2-yl}-1-(cyclopropylmethyl)-1H-indol-6-yl)-N,N-dimethylbenzamide]
0.15 | COc1cc(C(=O)N2C[C@H](N)C[C@@H](F)C2)cn2nc(-c3cc4ccc(-c5ccc(NC(C)=O)cc5)cc4n3CC3CC3)c(C)c12 [Example 214, N-[4-(2-{6-[(3R,5R)-3-Amino-5-fluoropiperidine-1-carbonyl]-4-methoxy-3-methylpyrazolo[1,5-a]pyridin-2-yl}-1-(cyclopropylmethyl)-1H-indol-6-yl)phenyl]acetamide]
0.07 | COc1cc(C(=O)N2CC3CCC2[C@@H]3N)cn2nc(-c3cc4ccc(-c5ccc(C(N)=O)c(C)c5)nc4n3CC3CC3)c(C)c12 (stereo partly drawn) [Example 206, 4-(2-{6-[(7R)-7-Amino-2-azabicyclo[2.2.1]heptane-2-carbonyl]-4-methoxy-3-methylpyrazolo[1,5-a]pyridin-2-yl}-1-(cyclopropylmethyl)-1H-pyrrolo[2,3-b]pyridin-6-yl)-2-methylbenzamide]
0.06 | COc1cc(C(=O)N2CC3CCC2[C@@H]3N)cn2nc(-c3cc4ccc(-c5ccccc5N5CCNC5=O)nc4n3CC3CC3)c(C)c12 (stereo partly drawn) [Example 205, 1-[2-(2-{6-[(7R)-7-Amino-2-azabicyclo[2.2.1]heptane-2-carbonyl]-4-methoxy-3-methylpyrazolo[1,5-a]pyridin-2-yl}-1-(cyclopropylmethyl)-1H-pyrrolo[2,3-b]pyridin-6-yl)phenyl]imidazolidin-2-one]
0.039 | Cc1c(-c2cc3ccc(C(C)(C)O)cc3n2CC2CC2)oc2cc(C(=O)N3CC4CCC3[C@@H]4N)ccc12 (stereo partly drawn) [Example 204, ((7R)-7-Amino-2-azabicyclo[2.2.1]heptan-2-yl)(2-(1-(cyclopropylmethyl)-6-(2-hydroxypropan-2-yl)-1H-indol-2-yl)-3-methylbenzofuran-6-yl)methanone]
0.012 | COc1cc(C(=O)N2CC3CCC2[C@@H]3N)cc2oc(-c3cc4ccc(C(C)(C)O)nc4n3CC3CC3)c(C)c12 (stereo partly drawn) [Example 203, ((7R)-7-Amino-2-azabicyclo[2.2.1]heptan-2-yl)(2-(1-(cyclopropylmethyl)-6-(2-hydroxypropan-2-yl)-1H-pyrrolo[2,3-b]pyridin-2-yl)-4-methoxy-3-methylbenzofuran-6-yl)methanone]
